25 compounds from patent US20070249691A1, “Mercaptoimidazoles as Ccr2 Receptor Antagonists” (priority 2004, published 2007) can be followed below.

Data set [1] has as its target T1, CCR2B (Homo sapiens, UniProt P41597).
T1 construct: expressed in transfected cells; host or cells: CHO cells (membrane preparation)
T1 sequence (P41597 1-360 isoform P41597-2): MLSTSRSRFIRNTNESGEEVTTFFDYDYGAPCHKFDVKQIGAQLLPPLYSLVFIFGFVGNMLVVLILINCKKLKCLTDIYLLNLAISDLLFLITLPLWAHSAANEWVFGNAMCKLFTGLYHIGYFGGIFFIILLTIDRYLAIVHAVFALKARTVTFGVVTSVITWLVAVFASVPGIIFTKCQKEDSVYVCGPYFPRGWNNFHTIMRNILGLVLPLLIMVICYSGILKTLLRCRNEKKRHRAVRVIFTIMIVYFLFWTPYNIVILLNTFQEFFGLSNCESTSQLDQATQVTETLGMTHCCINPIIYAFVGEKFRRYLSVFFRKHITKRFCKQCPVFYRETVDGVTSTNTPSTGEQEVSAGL
Description: 125I-MCP-1 radioligand binding assay, membranes from CCR2B-transfected CHO cells. The conditions noted are these: competition with 0.15 nM 125I-MCP-1, CCR2B-transfected CHO cell membranes, Cheng-Prusoff. Here is the method: Radioligand Binding Assay.
^125I-MCP-1 binding assays were performed in 96:well plates with 40 μg of protein per well. Compounds were dissolved and diluted in DMSO to 100× dilutions. A 10× concentration range of compounds was prepared in binding buffer (10% DSMO). Competition binding assays contained the following components in a total volume of 250 μl: 25 μl of the appropriate compound dilution (final concentration of 1% DMSO), 200 μl membranes from CCR2B-transfected CHO cells dissolved in binding buffer and 25 μl ^125I-MCP-1 (Bolton and Hunter labeled, Amersham, specific activity=2000 Ci/mmol, 0.15 nM final). Binding buffer was composed of 25 mM HEPES, 5 mM MgCl2, 1 mM CaCl2, 0.5% protease-free bovine serum albumin, pH 7.4. After 90 minutes incubation at 25° C. membranes were harvested on GF/B filters—presoaked in 0.5% polyethylenimine, followed by washing with buffer containing 25 mM HEPES, 5 mM MgCl2, 1 mM CaCl2, 5 mM NaCl, pH 7.4. Filter bound radioactivity was determined by liquid scintillation counting. EC50 values (μM) and Ki values (μM) were calculated. The ED50 value indicates the concentration of the test compound that competes with MCP-1 for half of the specific binding sites; the Ki value indicates the equilibrium dissociation constant, i.e. the concentration of the test compound that will bind to half of the binding sites at equilibrium in the absence of radioligand or other competitors. EC50 values and Ki values were calculated using non-linear regression in Graphpad Prism. Prism calculates the Ki or affinity of the receptor for the competing drug using the equation of Cheng and Prusoff (Biochem. Pharmacol. 1973, 22: 3099-3108). A low Ki indicates a high affinity of the receptor for the test compound. [formula] wherein Kd describes the affinity of the radioligand for the receptor, i.e. the concentration of the radioligand that will bind to half of the binding sites at equilibrium in the absence of competitors.
Table 6 lists Ki values (μM) obtained in the above-described test for compounds of formula (I).

The target in data set [2] is T2, CCR2 (Homo sapiens, UniProt P41597).
T2 sequence (P41597 1-360 isoform P41597-2): T1 sequence (P41597 1-360 isoform P41597-2)
In words: Chemotactic response of human PBMC to MCP-1. Format: cell-based. Also on record: Mononuclear cells from human heparinized peripheral blood (PBMC) were isolated; endogenous in cells; host or cells: human peripheral blood mononuclear cells. The conditions noted are these: inhibition of migration of human PBMC to 30 ng/ml hMCP-1, 105 minutes. The method, then:
The CCR2 antagonistic activity of the compounds of the present invention can also be determined by measuring the effect of the compounds on the chemotactic response of cells in the presence of a chemokine, such as for example MCP-1.
Mononuclear cells from human heparinized peripheral blood (PBMC) were isolated using Ficoll-Paque gradient centrifugation (Amersham Biosciences). Assays of chemotactic responsiveness were performed using disposable 96-well chemotaxis chambers (ChemoTx, Neuro Probe) with 5-μm pore size polycarbonate (PVP-free) filter membranes. Mononuclear cells were fluorescently labeled with 5 μg/ml Calcein-AM (Molecular Probes, Eugene, Oreg.) at 37° C. for 30 minutes. Labeled cells were washed twice and resuspended at 5×10^6 cells/ml in Hanks' Balanced Salt Solution (Gibco BRL) supplemented with 0.2% bovine serum albumin. Subsequently, cells were pre-incubated for 10 minutes at room temperature with serial dilutions of the compounds in DMSO (dimethylsulfoxide) (final DMSO concentration of 0.2%). Bottom wells of the chemotaxis chamber were loaded with 28 μl medium containing 30 ng/ml recombinant hMCP-1 (R&D) or buffer only. Pre-treated cells (100.000 cells) were added in triplicate to the topside of the filter (20 μl) and incubated at 37° C. in humidified air containing 5% CO2. After 105 minutes incubation, the non-migrated cells were removed from the top of the filter by gently wiping the filter with a tissue. The migrated cells were measured using a fluorescent plate reader (λexcitation=485 nm; λemission=538 nm). The chemotactic response can be expressed as chemotactic index (C.I.), being the ratio of the means of migrated cells in the presence of MCP-1 and the means of migrated cells in the absence of chemokine. Percentage inhibition was calculated using the formula: [formula]
with Fsample, the fluorescence of the cells pre-incubated with 10, 1, 0.1, 0.01 or 0.001 μM compound and migrated to 30 ng/ml MCP-1 in the bottom wells; FMCP-1, the fluorescence of the cells pre-incubated with buffer-0.2% DMSO and migrated to 30 ng/ml MCP-1 and Fbuffer, the fluorescence of cells pre-incubated with buffer-0.2% DMSO and spontaneous migrated to buffer in the bottom wells. Table 7 lists the IC50 values (μM) obtained in the above-described test for compounds of formula (I). Assays were run in triplicate and repeated 2-7 times.

Data set [3] has as its target T2, CCR2. In words: Inhibition of MCP-1 induced Ca-flux in human THP-1 cells. In kind it is cell-based. Also noted: host or cells: THP-1 (human monocytic cell line). The conditions noted are these: -log IC50 (molar), inhibition of specific MCP-1 (10^-7 M hMCP-1) induced Ca2+ flux, FLIPR. Here is the method: Inhibition of MCP-1 Induced Ca-Flux in Human THP-1 Cells
MCP-1 binding to the CCR2 receptor induces a rapid and transient intracellular release of Ca^2+ (secondary messenger) in several cell lines (Charo et al, PNAS 1994). Free Ca^2+ levels can be measured using a Ca^2+ sensitive dye. When the CCR2 receptor is blocked with a CCR2 receptor antagonist, the MCP-1 induced release of Ca^2+ is inhibited.
Human THP-1 cells (monocytic cell line, ATCC TIB-202) were cultured in RPMI 1640 medium supplemented with 10% fetal calf serum (FCS), 1% L-Glutamine, penicillin (50 U/ml) and streptomycin (50 μg/ml) (all GIBCO BRL, Gent). After centrifugation, cells were loaded for 30 minutes with the Ca^2+ sensitive fluorescent dye Fluo-3 μM (Molecular Probes, Leiden, Netherlands) (2 million cells/ml in RPMI medium containing 4 μM Fluo-3 μM, 20 mM HEPES, 0.1% Bovine Serum Albumin (BSA) and 5 mM probenecid). Excess dye was removed by 3-fold washing with buffer (5 mM HEPES, 140 mM NaCl, 1 mM MgCl2, 5 mM KCl, 10 mM glucose, 2.5 mM probenecid, 1.25 mM CaCl2, 0.1% BSA; all further incubations were done in this buffer). Cells were plated at a density of 150 000 cells/well in dark-wall 96-well plates (Costar, Cambridge, Mass.) and sedimented by centrifugation (1 minute). The cells were pre-incubated for 20 minutes with test compound. Then, 10^−7 M hMCP-1 (Bachem, Bubendorf, Switserland) was added. Changes in intracellular free Ca^2+ concentration were measured using the Fluorescent Imaging Plate Reader (FLIPR, Molecular Devices, Munchen, Germany). Fluorescence was recorded every second from 10 seconds before the addition of the MCP-1 till 2 minutes after the addition (first minute: 60 records with 1 second intervals, second minute 20 records with 3 second intervals). The maximal fluorescence obtained during this time frame was used for further calculations.
Table 5 reports pIC50 values obtained in the above-described test for compounds of formula (I). pIC50 defines—log IC50 wherein IC50 is the molar concentration of the test compound which inhibits 50% of specific MCP-1 induced Ca^2+ flux.

Each structure is given as a SMILES string.

By melting point is commonly meant the temperature, or range, at which the solid turns liquid. As to `CCC(c1ccc(Cl)c(Cl)c1)n1cc(-c2sc(N)nc2C)nc1S.Cl` (stereo not drawn), the melting point was in the range of 301.8 to 303.3 °C.

In general, Ki refers to the dissociation constant of the complex between target and ligand, obtained from inhibition or displacement. A word on the IC50: it is the point on the concentration scale where inhibition reaches its midpoint. For `CCC(c1ccc(F)c(F)c1)n1c(C(=O)OC)c(-c2ccno2)[nH]c1=S` (stereo in doubt) [Compound 53, (S)-3-[1-(3,4-difluoro-phenyl)propyl]-5-isoxazol-5-yl-2-thioxo-2,3-dihydro-1H-imidazole-4-carboxylic acid methyl ester], the affinity in data set [1], expressed as Ki, was 30 nM. This compound came in with a half-inhibitory concentration (IC50) in data set [2] of 108 nM.

In the case of `CCC(c1ccc(Cl)c(Cl)c1)n1c(C(=O)OC)c(-c2cccs2)[nH]c1=S` (stereo not drawn) [Compound 6], the half-inhibitory concentration (IC50) in data set [3] is 55 nM.

In the case of `CCC(c1ccc(F)c(F)c1)n1c(S)nc(-c2ccno2)c1C(=O)OC` (stereo not drawn) [Compound 7], the IC50 in data set [3] is 11.7 nM.

For `CCC(c1ccc(Cl)c(Cl)c1)n1c(S)nc(-c2nnco2)c1C(=O)OC` (stereo not drawn) [Compound 9], the midpoint of inhibition in data set [3], the IC50, lay at 35.5 nM.

`CCC(c1ccc(F)c(F)c1)n1c(C(N)=O)c(-c2nnc(C)o2)[nH]c1=S` (stereo not drawn) [Compound 13]: the melting point was in the range of 228 to 229 °C. This compound also showed a Ki in data set [1] of 300 nM.

In turn, `CCC(c1ccc(F)c(F)c1)n1c(C(=O)NCCO)c(-c2nnc(C)o2)[nH]c1=S` (stereo not drawn) [Compound 14] showed a melting point of 165 to 166 °C.

`CCC(c1ccc(F)c(F)c1)n1c(S)nc(-c2cc(C)on2)c1C(=O)OCCOC` (stereo not drawn) [Compound 16] gave an IC50 in data set [3] of 31.6 nM.

`CCC(c1ccc(Cl)c(Cl)c1)n1c(C(=O)O)c(-c2cccs2)[nH]c1=S` (stereo not drawn) [Compound 23] had an IC50 in data set [2] of 24 nM.

Consider `CCC(c1ccc(Cl)c(Cl)c1)n1c(C(=O)OC)c(-c2snnc2C)[nH]c1=S` (stereo not drawn) [Compound 24], for which, in data set [3], it took 72.4 nM to reach half-maximal inhibition (IC50).

Regarding `CCC(c1ccc(Cl)c(Cl)c1)n1c(C(=O)OC)c(-c2ccno2)[nH]c1=S` (stereo not drawn) [Compound 25], the IC50 in data set [3] is 13.2 nM.

As for `CCC(c1ccc(Cl)c(Cl)c1)n1c(C(=O)OC)c(-c2ccno2)[nH]c1=S` (stereo not drawn) [Compound 26], the Ki in data set [1] was 50 nM. Besides, the IC50 in data set [3] was 7.94 nM.

The compound `CCC(c1ccc(Cl)c(Cl)c1)n1c(C(=O)OC)c(-c2nnc(C)o2)[nH]c1=S` (stereo not drawn) [Compound 27] had an IC50 in data set [3] of 33.1 nM.

`CCC(c1ccc(Cl)c(Cl)c1)n1c(C(=O)OC)c(-c2cc(C)on2)[nH]c1=S` (stereo not drawn) [Compound 28] registered an inhibitory constant (Ki) in data set [1] of 10 nM. In addition, the concentration for half-maximal inhibition (IC50) in data set [3] was 15.8 nM; in data set [2] it was 367 nM.

In turn, `CCC(c1ccc(Cl)c(Cl)c1)n1c(C(=O)OC)c(-c2ccccc2)[nH]c1=S` (stereo not drawn) [Compound 31] returned a Ki in data set [1] of 70 nM. Moreover, the IC50 was 75.9 nM in data set [3] and 214 nM in data set [2].

For the compound `CCC(c1ccc(Cl)c(Cl)c1)n1c(C(=O)OC)c(-c2ccccn2)[nH]c1=S` (stereo not drawn) [Compound 32], the IC50 in data set [3] was 25.1 nM.

Consider `CCC(c1ccc(Cl)c(Cl)c1)n1c(C(=O)OC)c(-c2ccncc2)[nH]c1=S` (stereo not drawn) [Compound 33], for which the half-inhibitory concentration (IC50) in data set [3] is 12.6 nM.

Turning to `CCC(c1ccc(Cl)c(Cl)c1)n1c(C(=O)OC)c(-c2cnccn2)[nH]c1=S` (stereo not drawn) [Compound 34], it took 25.1 nM to reach half-maximal inhibition in data set [3] (IC50).

`CCC(c1ccc(Cl)c(Cl)c1)n1c(C(N)=O)c(-c2nnc(C)o2)[nH]c1=S` (stereo not drawn) [Compound 36]: in data set [1], the inhibitory constant (Ki) worked out at 70 nM. The IC50 is 39.8 nM in data set [3] and 244 nM in data set [2].

Take `CCCC(c1ccc(Cl)c(Cl)c1)n1c(C(=O)OC)c(-c2nnc(C)o2)[nH]c1=S` (stereo not drawn) [Compound 40]: inhibition in data set [3] was half-maximal at 43.7 nM (IC50).

In the case of `CC[C@H](c1ccc(F)c(F)c1)n1c(C(=O)OC)c(-c2ccno2)[nH]c1=S` [Compound 43], the Ki in data set [1] worked out at 30 nM. Moreover, the IC50 in data set [3] was 7.94 nM.

In the case of `CCCC(c1ccc(F)c(F)c1)n1c(C(=O)OC)c(-c2ccno2)[nH]c1=S` (stereo not drawn) [Compound 48], in data set [3], the half-maximal inhibitory concentration (IC50) was 12.6 nM.

In turn, `CCCC(c1ccc(F)c(F)c1)n1c(C(=O)OC)c(-c2cc(C)on2)[nH]c1=S` (stereo not drawn) [Compound 49] gave an IC50 in data set [3] of 25.1 nM.

Regarding `COCC(c1ccc(F)c(F)c1)n1c(C(=O)OC)c(-c2nnc(C)o2)[nH]c1=S` (stereo not drawn) [Compound 50], the melting point was 102.8 to 102.9 °C.

As for `CCC(c1ccc(Cl)c(Cl)c1)n1c(C(=O)OC)c(-c2cccnc2)[nH]c1=S` (stereo not drawn) [Compound 51], the half-inhibitory concentration (IC50) in data set [3] was 39.8 nM; in data set [2], 474 nM.
